Test results from patent US8859496B2, “Pharmaceutical composition using connective-tissue growth factor” (Postech Academy-Industry Foundation, priority 2010, dated 2014).
No end group written: not given here.

What was measured:
FPRL1 = target: T1, FPRL1 (Homo sapiens, UniProt P25090); assay: Flow cytometry binding of biotinylated linker polypeptide to FPRL1/RBL, vector/RBL or FPR/RBL cells
T1 construct: expressed in transfected cells; host or cells: rat basophil leukemia RBL-2H3 cells, kept under G418
T1 sequence (P25090 1-351): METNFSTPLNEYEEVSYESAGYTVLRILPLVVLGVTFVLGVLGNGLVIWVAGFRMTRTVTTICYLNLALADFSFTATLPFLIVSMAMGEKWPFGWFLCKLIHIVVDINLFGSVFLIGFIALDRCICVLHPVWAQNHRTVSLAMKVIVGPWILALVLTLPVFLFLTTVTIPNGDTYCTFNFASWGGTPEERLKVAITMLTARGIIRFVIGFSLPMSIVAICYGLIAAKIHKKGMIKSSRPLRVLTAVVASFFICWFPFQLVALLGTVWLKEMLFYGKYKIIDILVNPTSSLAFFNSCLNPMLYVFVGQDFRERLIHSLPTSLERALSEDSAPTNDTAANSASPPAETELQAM
Experimental: To evaluate the degree of binding of linker polypeptide corresponding to the link region of human CTGF, linker polypeptide was labeled using a EZ-Link Micro Sulfo-NHS-LC-Biotinylation kit (Pierce Chemical Co., Rockford, Ill., USA) according to the manufacturer's instruction. The linker polypeptide was cultured at room temperature for 1 hour in PBS with 9 mM sulfo-NHS-LC-biotin (Pierce Chemical Co., Rockford, Ill., USA). During biotinylation, vector/RBL cells, FPR/RBL cells, FPRL1/RBL cells, or HUVECs were treated with trypsin, and collected, and then, treated with rabbit serum at room temperature for 30 minutes. After culturing the biotinylated linker polypeptide in the ice for 30 minutes, the cells were shortly washed with ice-cold PBS, cultured with antihuman fluoroscein-5-isothiocyanate (FITC)-conjugated streptavidin (Pierce Chemical Co.), and then, washed with ice-cold PBS, and fixed with 1% formaldehyde solution. And then, they were analyzed using FACS Caliber system (BD Biosciences, San Jose, Calif.) with CellQuest and WinMDI 2.9 software according to previously known method (He, R., Sang, H. & Ye, R. D. Serum amyloid A induces IL-8 secretion through a G protein-coupled receptor, FPRL1/LXA4R. Blood 101, 1572-1581, 2003). […]

HUVECs [1] = assay: Intracellular Ca2+ concentration in HUVECs; assay type: cell-based, human
Experimental: FPRL1/RBL, vector/RBL or FPR/RBL cells were cultured in a fluo-3-AM working solution containing 0.03% (w/v) plutonic F-127 (Molecular Probes) at 37° C. for 1 hour so that the final concentration of fluo-3-AM became 20 uM/L. After the culturing, fluo-3-AM fluorescence occurred at 488 nm with high-power Ar^+ laser in the cells, and the emission band was measured at 530 nm with photomultiplier. Fluorescence signal was detected using confocal laser scanning system (LSM 510 Meta; Carl Zeiss, Jena, Germany) equipped with Nikon E-600 Eclipse microscope. Fluorescence intensities before adding CTGF (F0) and after adding CTGF (F) were measured. Change in the intracelullar Ca^2+ concentration [Ca^2+]i was indicated by F/F0 ratio. From each cell, 50 to 120 images were scanned.
And, HUVECs were treated with the CTGF linker polypeptide or rhCTGF at various concentrations for 1 hour, it was confirmed whether intracellular Ca^2+ concentration increases by the above method, and the results are shown in FIG. 15.

HUVECs [2] = assay: HUVEC wound migration assay; assay type: cell-based, human
Experimental: Specifically, HUVECs inoculated on a 60-mm culture dish to confluence were wounded with the end of a pipette, and treated with linker polypeptide (10^−1˜10^2 nM) or recombinant CTGF (recombinant human CTGF, rhCTGF; BioVendor R&D, NC, USA) (10^1 or 10^2 nM) in Medium 199 to which 1% serum and 1 mM thymidine were added. After culturing 16 hours, the number of cells that migrated over a reference line was counted to quantify the degree of migration, and the cells were photographed with 50× magnification.
First, 20 ng/ml of VEGF-A was administered to HUVECs, the degree of cell proliferation, cell migration, or tube formation was confirmed by the <Experiment method 9>, and the results are shown in FIGS. 22 to 24. At this time, FPRL1 antagonist WRW4 was additionally added.

Substance | effect of antagonist on linker polypeptide binding (FPRL1; WRW4 10 uM, 30 minutes) | effect of antagonist on Ca2+ increase by CTGF linker polypeptide in HUVECs (HUVECs [1]; WRW4 10 uM) | effect of antagonist on HUVEC migration induced by VEGF-A (HUVECs [2]; VEGF-A 20 ng/ml, WRW4 10 uM) | effect of antagonist on HUVEC migration induced by CTGF linker polypeptide (HUVECs [2]; WRW4 10 uM) | binding of biotinylated linker polypeptide to cells (FPRL1; 10 nM, FPRL1/RBL, vector/RBL or FPR/RBL cells) | intracellular Ca2+ concentration in HUVECs (HUVECs [1]; various concentrations, 1 hour) | migration of HUVECs (HUVECs [2]; linker polypeptide 10^-1 to 10^2 nM, 16 hours, compared to recombinant CTGF)
WRWWWW (FPRL1 antagonist) [WRW4] | the linker polypeptide binding is inhibited in FPR/RBL cells | that's not the case when the cells are treated with FPRL1 antagonist WRW4 | the cell migration is not induced | the cell migration is not induced | – | – | –
EWVCDEPKDQTVVGPALAAYRLEDTFGPDPTMIRANCLV (EWVCDEPKDQTVVGPALAAYRLEDTFGPDPTMIRANCLV-NH2; cysteine pairing not given here) [CTGF linker polypeptide] | – | – | – | – | binds only to FPRL1/RBL cells | increases intracellular Ca^2+ concentration in a concentration-dependent manner | induces migration of HUVECs in a concentration-dependent manner more effectively than recombinant CTGF
